Laboratory results taken from the NIST ThermoML archive (doi:10.1016/j.jct.2009.08.009).

Assay: xn = mol fraction of the nth substance listed
Conditions: 101 kPa, Liquid; for viscosity: Capillary tube (Ostwald / Ubbelohde) method; for speed of sound: Sing-around technique in a fixed-path interferometer; for mass density: Vibrating tube method

CCCCCCCCO [octan-1-ol] + CCOCCOCCO
x2 = 0
Conditions | viscosity [mPa·s]
293.15 K | 8.309
298.15 K | 7.143
303.15 K | 5.969
308.15 K | 5.009

CCCCCCCCCCO [decan-1-ol] + CCOCCOCCO
x2 = 0
Conditions | viscosity [mPa·s]
293.15 K | 13.04
298.15 K | 11.19
303.15 K | 9.066
308.15 K | 7.459

CCOCCOCCO [3,6-dioxa-1-octanol] + CCCCCCCCCCO
Conditions | mass density [kg/m3] | speed of sound [m/s] | viscosity [mPa·s]
293.15 K, x1 = 0.0607 | 836.419 | 1394.1 | 11.4
293.15 K, x1 = 0.109 | 841.997 | 1392.3 | 10.28
293.15 K, x1 = 0.1561 | 847.628 | 1390.6 | 9.367
293.15 K, x1 = 0.2105 | 854.439 | 1388.9 | 8.743
293.15 K, x1 = 0.2599 | 862.044 | 1387.4 | 7.761
293.15 K, x1 = 0.3089 | 867.859 | 1386.6 | 7.383
293.15 K, x1 = 0.3533 | 874.329 | 1385.8 | 6.336
293.15 K, x1 = 0.4923 | 896.636 | 1385.3 | 5.731
293.15 K, x1 = 0.5986 | 916.267 | 1387.2 | 5.141
293.15 K, x1 = 0.7153 | 940.786 | 1392.6 | 4.525
293.15 K, x1 = 0.7918 | 959.008 | 1398.6 | 4.186
293.15 K, x1 = 0.901 | 988.518 | 1412.6 | 3.899
293.15 K, x1 = 1 | – | – | 3.626
298.15 K, x1 = 0.0607 | 832.969 | 1377 | 9.658
298.15 K, x1 = 0.109 | 838.521 | 1375.3 | 8.774
298.15 K, x1 = 0.1561 | 844.112 | 1373.6 | 8.059
298.15 K, x1 = 0.2105 | 850.88 | 1371.8 | 7.574
298.15 K, x1 = 0.2599 | 858.441 | 1370.5 | 6.868
298.15 K, x1 = 0.3089 | 864.217 | 1369.6 | 6.353
298.15 K, x1 = 0.3533 | 870.65 | 1368.9 | 6.008
298.15 K, x1 = 0.4923 | 892.825 | 1368.4 | 5.027
298.15 K, x1 = 0.5986 | 912.348 | 1370.3 | 4.479
298.15 K, x1 = 0.7153 | 936.739 | 1375.7 | 4.005
298.15 K, x1 = 0.7918 | 954.872 | 1381.7 | 3.729
298.15 K, x1 = 0.901 | 984.244 | 1395.6 | 3.449
298.15 K, x1 = 1 | – | – | 3.278
303.15 K, x1 = 0.0607 | 829.51 | 1360.1 | 8.114
303.15 K, x1 = 0.109 | 835.031 | 1358.4 | 7.312
303.15 K, x1 = 0.1561 | 840.589 | 1356.8 | 6.739
303.15 K, x1 = 0.2105 | 847.315 | 1355.1 | 6.387
303.15 K, x1 = 0.2599 | 854.826 | 1353.7 | 5.858
303.15 K, x1 = 0.3089 | 860.567 | 1352.8 | 5.366
303.15 K, x1 = 0.3533 | 866.962 | 1352.1 | 5.083
303.15 K, x1 = 0.4923 | 889.005 | 1351.7 | 4.338
303.15 K, x1 = 0.5986 | 908.42 | 1353.7 | 3.859
303.15 K, x1 = 0.7153 | 932.679 | 1358.9 | 3.458
303.15 K, x1 = 0.7918 | 950.728 | 1364.9 | 3.235
303.15 K, x1 = 0.901 | 979.965 | 1378.8 | 3.021
303.15 K, x1 = 1 | – | – | 2.862
308.15 K, x1 = 0.0607 | 826.037 | 1343.3 | 6.698
308.15 K, x1 = 0.109 | 831.525 | 1341.6 | 6.116
308.15 K, x1 = 0.1561 | 837.051 | 1340.1 | 5.838
308.15 K, x1 = 0.2105 | 843.734 | 1338.4 | 5.38
308.15 K, x1 = 0.2599 | 851.204 | 1336.9 | 4.826
308.15 K, x1 = 0.3089 | 856.908 | 1336.2 | 4.528
308.15 K, x1 = 0.3533 | 863.255 | 1335.5 | 4.319
308.15 K, x1 = 0.4923 | 885.17 | 1335.1 | 3.697
308.15 K, x1 = 0.5986 | 904.477 | 1337 | 3.346
308.15 K, x1 = 0.7153 | 928.613 | 1342.4 | 2.978
308.15 K, x1 = 0.7918 | 946.566 | 1348.3 | 2.817
308.15 K, x1 = 0.901 | 975.664 | 1362.1 | 2.67
308.15 K, x1 = 1 | – | – | 2.507
